From patent US11623919B2, “Heterocyclic P2X7 antagonists” (AXXAM S.P.A., priority 2017, dated 2023) come the findings set out here.

Holding throughout (test): Screen Quest Fluo-8 No Wash Calcium Assay (Bz-ATP evoked Ca2+ influx, FLIPR)
What all share (format): cell-based

The target in test [1] is T1, P2X7 receptor (Homo sapiens, UniProt Q99572).
T1 sequence (Q99572 1-595): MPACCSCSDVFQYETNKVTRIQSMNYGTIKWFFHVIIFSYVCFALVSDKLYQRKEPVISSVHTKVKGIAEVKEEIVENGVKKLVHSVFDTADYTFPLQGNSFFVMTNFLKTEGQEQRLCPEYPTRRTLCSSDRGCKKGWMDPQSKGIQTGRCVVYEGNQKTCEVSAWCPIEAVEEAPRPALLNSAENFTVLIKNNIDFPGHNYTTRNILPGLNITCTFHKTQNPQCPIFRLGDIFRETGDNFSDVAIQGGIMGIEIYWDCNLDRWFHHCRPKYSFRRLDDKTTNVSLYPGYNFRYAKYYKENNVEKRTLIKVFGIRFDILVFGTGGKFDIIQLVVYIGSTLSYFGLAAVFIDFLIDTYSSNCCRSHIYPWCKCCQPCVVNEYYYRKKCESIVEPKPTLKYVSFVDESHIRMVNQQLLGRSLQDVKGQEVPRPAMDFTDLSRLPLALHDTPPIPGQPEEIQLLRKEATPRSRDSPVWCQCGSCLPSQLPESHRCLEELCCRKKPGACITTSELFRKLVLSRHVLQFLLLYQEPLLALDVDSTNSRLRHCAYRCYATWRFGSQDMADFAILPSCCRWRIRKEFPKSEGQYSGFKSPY
Further details: hP2X7 (IC50; nM); other: hP2X7; HEK-293 cells stably transfected with P2X7 receptor, Bz-ATP at EC80, Fluo-8 NW; potency. The following applies: hP2X7; HEK-293 cells stably transfected with P2X7 receptor, Bz-ATP at EC80, Fluo-8 NW; potency ranges A-D. The procedure, abridged: (§1)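 Compounds were added to Fluo-8-loaded P2X7-transfected HEK-293 cells 5 min before an EC80 Bz-ATP challenge, and Ca2+ influx was then recorded for 3 min. Buffer held 0.3 mM Ca2+ and no Mg2+. Inhibition was normalised to A438079, giving IC50 values.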

Test [2] addresses T2, P2X7 receptor (Rattus norvegicus, UniProt Q64663).
T2 construct: rP2X7 (IC50; nM); other: rP2X7; HEK-293 cells stably transfected with P2X7 receptor, Bz-ATP at EC80, Fluo-8 NW; potency
T2 sequence (Q64663 1-595): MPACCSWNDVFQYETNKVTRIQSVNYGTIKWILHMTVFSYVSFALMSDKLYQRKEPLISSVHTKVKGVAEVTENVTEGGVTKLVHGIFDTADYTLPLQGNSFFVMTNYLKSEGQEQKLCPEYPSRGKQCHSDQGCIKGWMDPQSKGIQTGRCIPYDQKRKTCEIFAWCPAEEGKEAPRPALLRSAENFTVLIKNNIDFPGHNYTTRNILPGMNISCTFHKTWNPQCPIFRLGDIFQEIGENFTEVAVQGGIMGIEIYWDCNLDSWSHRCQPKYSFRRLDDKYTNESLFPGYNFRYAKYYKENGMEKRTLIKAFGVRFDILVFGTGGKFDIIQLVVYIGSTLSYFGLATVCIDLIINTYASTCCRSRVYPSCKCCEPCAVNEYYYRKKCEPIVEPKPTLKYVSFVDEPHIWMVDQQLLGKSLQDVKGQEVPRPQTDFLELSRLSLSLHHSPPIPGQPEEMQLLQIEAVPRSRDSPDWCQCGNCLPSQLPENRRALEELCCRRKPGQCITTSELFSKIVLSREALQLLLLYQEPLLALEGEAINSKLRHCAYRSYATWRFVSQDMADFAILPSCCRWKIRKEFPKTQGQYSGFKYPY
The following applies: rP2X7; HEK-293 cells stably transfected with P2X7 receptor, Bz-ATP at EC80, Fluo-8 NW; potency ranges A-D. The procedure, abridged:
as §1

Test [3] concerns the target T3, P2X7 receptor (Mus musculus, UniProt Q9Z1M0).
T3 construct: mP2X7 (IC50; nM); other: mP2X7; HEK-293 cells stably transfected with P2X7 receptor, Bz-ATP at EC80, Fluo-8 NW; potency
T3 sequence (Q9Z1M0 1-595): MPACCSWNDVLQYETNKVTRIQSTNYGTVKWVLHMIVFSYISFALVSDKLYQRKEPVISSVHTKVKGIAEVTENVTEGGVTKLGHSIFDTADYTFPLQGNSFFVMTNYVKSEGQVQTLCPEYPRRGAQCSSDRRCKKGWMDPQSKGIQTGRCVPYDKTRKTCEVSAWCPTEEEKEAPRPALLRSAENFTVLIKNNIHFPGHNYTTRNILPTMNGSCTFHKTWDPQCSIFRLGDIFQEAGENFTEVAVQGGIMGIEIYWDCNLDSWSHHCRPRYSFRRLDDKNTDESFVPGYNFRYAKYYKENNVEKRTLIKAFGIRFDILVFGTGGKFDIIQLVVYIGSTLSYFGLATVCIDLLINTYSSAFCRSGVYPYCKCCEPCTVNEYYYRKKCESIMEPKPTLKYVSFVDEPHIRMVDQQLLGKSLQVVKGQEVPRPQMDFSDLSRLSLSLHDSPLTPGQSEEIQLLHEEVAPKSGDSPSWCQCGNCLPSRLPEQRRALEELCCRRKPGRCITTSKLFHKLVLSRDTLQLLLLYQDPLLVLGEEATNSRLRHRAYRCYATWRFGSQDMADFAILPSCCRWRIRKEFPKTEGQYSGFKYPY
The following applies: mP2X7; HEK-293 cells stably transfected with P2X7 receptor, Bz-ATP at EC80, Fluo-8 NW; potency ranges A-D. The procedure, abridged:
as §1

For `O=c1onc(Cc2c(F)cccc2Cl)n1Cc1cncnc1` [Example 38, 3-[(2-chloro-6-fluorophenyl)methyl]-4-(pyrimidin-5-ylmethyl)-4,5-dihydro-1,2,4-oxadiazol-5-one], the IC50 at P2X7 receptor [1], at P2X7 receptor [2] and on P2X7 receptor [3] was over 10000 nM in each case.
Consider `O=c1onc(CN2CCC(F)(F)CC2)n1Cc1ccc(F)cc1` [Example 221, 3-[(4,4-difluoropiperidin-1-yl)methyl]-4-[(4-fluorophenyl)methyl]-4,5-dihydro-1,2,4-oxadiazol-5-one], for which the IC50 at P2X7 receptor [1] was over 10000 nM; at P2X7 receptor [2] it was 1000 to 10000 nM; on P2X7 receptor [3], 1000 to 10000 nM.
In the case of `O=c1onc(Cc2ccc(F)cc2)n1CC1CCC(F)(F)CC1` [Example 152, 4-[(4,4-difluorocyclohexyl)methyl]-3-[(4-fluorophenyl)methyl]-4,5-dihydro-1,2,4-oxadiazol-5-one], the half-inhibitory concentration (IC50) at P2X7 receptor [1] fell in the range of 200 to 1000 nM; at P2X7 receptor [2] it was 200 to 1000 nM; on P2X7 receptor [3] it was 1000 to 10000 nM.
Regarding `CC(c1ccc(F)cc1)n1c(CC2CCCCC2)noc1=O` (stereo not drawn) [Example 163, 3-(cyclohexylmethyl)-4-[1-(4-fluorophenyl)ethyl]-4,5-dihydro-1,2,4-oxadiazol-5-one], the IC50 at P2X7 receptor [1], at P2X7 receptor [2] and at P2X7 receptor [3] was 1000 to 10000 nM each time.
For the compound `O=c1onc(Cc2ccccc2F)n1Cc1ccc(F)cc1` [Example 75, 3-[(2-fluorophenyl)methyl]-4-[(4-fluorophenyl)methyl]-4,5-dihydro-1,2,4-oxadiazol-5-one], the IC50 on P2X7 receptor [1], at P2X7 receptor [2] and at P2X7 receptor [3] was 1000 to 10000 nM throughout.
As for `O=c1onc(Cc2ccc(F)cc2)n1Cc1cccc(Cl)c1Cl` [Example 50, 4-[(2,3-dichlorophenyl)methyl]-3-[(4-fluorophenyl)methyl]-4,5-dihydro-1,2,4-oxadiazol-5-one], the IC50 at P2X7 receptor [1], at P2X7 receptor [2] and at P2X7 receptor [3] was over 10000 nM each time.
On to `O=c1onc(Cc2ccc(F)cc2)n1Cc1cccc(C(F)(F)F)c1Cl` [Example 52, 4-{[2-chloro-3-(trifluoromethyl)phenyl]methyl}-3-[(4-fluorophenyl)methyl]-4,5-dihydro-1,2,4-oxadiazol-5-one], for which the IC50 at P2X7 receptor [1], at P2X7 receptor [2] and on P2X7 receptor [3] was over 10000 nM in each case.
As to `O=c1onc(CN2CCC(F)(F)CC2)n1Cc1c(F)cccc1Cl` [Example 220, 4-[(2-chloro-6-fluorophenyl)methyl]-3-[(4,4-difluoropiperidin-1-yl)methyl]-4,5-dihydro-1,2,4-oxadiazol-5-one], the figures for the IC50 on P2X7 receptor [1], at P2X7 receptor [2] and on P2X7 receptor [3] were under 200 nM, under 200 nM and 200 to 1000 nM, respectively.
Regarding `COCn1c(Cc2c(F)cccc2Cl)noc1=O` [Example 100, 3-[(2-chloro-6-fluorophenyl)methyl]-4-(methoxymethyl)-4,5-dihydro-1,2,4-oxadiazol-5-one], the IC50 on P2X7 receptor [1], on P2X7 receptor [2] and on P2X7 receptor [3] was over 10000 nM throughout.
For the compound `Cc1noc(C)c1Cn1c(Cc2c(F)cccc2Cl)noc1=O` [Example 36, 3-[(2-chloro-6-fluorophenyl)methyl]-4-[(dimethyl-1,2-oxazol-4-yl)methyl]-4,5-dihydro-1,2,4-oxadiazol-5-one], the figures for the IC50 at P2X7 receptor [1], on P2X7 receptor [2] and at P2X7 receptor [3] were 1000 to 10000 nM, over 10000 nM and over 10000 nM, respectively.
As for `O=c1onc(Cc2ccc(F)cc2F)n1Cc1ccc(F)cc1` [Example 80, 3-[(2,4-difluorophenyl)methyl]-4-[(4-fluorophenyl)methyl]-4,5-dihydro-1,2,4-oxadiazol-5-one], the figures for the IC50 at P2X7 receptor [1], on P2X7 receptor [2] and at P2X7 receptor [3] were 1000 to 10000 nM, 1000 to 10000 nM and over 10000 nM, respectively.
As to `O=c1onc(CC2CCCCC2)n1Cc1ccc(F)cc1` [Example 131, 3-(cyclohexylmethyl)-4-[(4-fluorophenyl)methyl]-4,5-dihydro-1,2,4-oxadiazol-5-one], the IC50 on P2X7 receptor [1], on P2X7 receptor [2] and at P2X7 receptor [3] was 1000 to 10000 nM each time.
Turning to `O=c1onc(Cc2ccccc2)n1Cc1ccc(F)cc1` [Example 108, 3-benzyl-4-[(4-fluorophenyl)methyl]-4,5-dihydro-1,2,4-oxadiazol-5-one], the IC50 on P2X7 receptor [1], at P2X7 receptor [2] and on P2X7 receptor [3] was 1000 to 10000 nM in each case.
For the compound `CC(C)(c1c(F)cccc1Cl)c1noc(=O)n1CC1CCCCC1` [Example 121, 3-[2-(2-chloro-6-fluorophenyl)propan-2-yl]-4-(cyclohexylmethyl)-4,5-dihydro-1,2,4-oxadiazol-5-one], the IC50 on P2X7 receptor [1], at P2X7 receptor [2] and on P2X7 receptor [3] was over 10000 nM in each case.
For `O=c1onc(Cc2c(F)cccc2Cl)n1Cc1ccccc1` [Example 21, 4-benzyl-3-[(2-chloro-6-fluorophenyl)methyl]-4,5-dihydro-1,2,4-oxadiazol-5-one], the IC50 on P2X7 receptor [1] was 200 to 1000 nM; on P2X7 receptor [2] it was 1000 to 10000 nM; on P2X7 receptor [3] it was 1000 to 10000 nM.
In the case of `O=c1onc(CC2CCC(F)(F)C2)n1Cc1ccc(F)cc1` (stereo not drawn) [Example 204, 3-[(3,3-difluorocyclopentyl)methyl]-4-[(4-fluorophenyl)methyl]-4,5-dihydro-1,2,4-oxadiazol-5-one], the IC50 on P2X7 receptor [1], on P2X7 receptor [2] and on P2X7 receptor [3] was over 10000 nM each time.
For `CC(c1ccccc1)n1c(CC2CCC(F)(F)CC2)noc1=O` (stereo not drawn) [Example 188, 3-[(4,4-difluorocyclohexyl)methyl]-4-(1-phenylethyl)-4,5-dihydro-1,2,4-oxadiazol-5-one], the IC50 at P2X7 receptor [1], on P2X7 receptor [2] and on P2X7 receptor [3] was 1000 to 10000 nM in each case.
`O=c1onc(Cc2ccncc2)n1Cc1ccc(F)cc1` [Example 79, 4-[(4-fluorophenyl)methyl]-3-(pyridin-4-ylmethyl)-4,5-dihydro-1,2,4-oxadiazol-5-one]: the IC50 on P2X7 receptor [1], at P2X7 receptor [2] and at P2X7 receptor [3] was over 10000 nM each time.
Consider `O=c1onc(CC2CCC(F)(F)CC2)n1Cc1cccc(C(F)(F)F)c1Cl` [Example 167, 4-{[2-chloro-3-(trifluoromethyl)phenyl]methyl}-3-[(4,4-dffluorocyclohexyl)methyl]-4,5-dihydro-1,2,4-oxadiazol-5-one], for which the IC50 on P2X7 receptor [1] was over 10000 nM; at P2X7 receptor [2], 1000 to 10000 nM; on P2X7 receptor [3], 1000 to 10000 nM.
